Experimental data as given in EP1248603B1, “USE OF PARTICULAR COMPOUNDS FOR PROPHYLAXIS AND TREATMENT OF HEPATITIS C” (Morphochem AG, priority 2000, dated 2001).
Read-outs that look alike come from different tables or passages of the source.

Target: T1, NS3 Proteinase (Hepatitis C virus genotype 1b, UniProt P26663)
T1 construct: beschriebenen NS3 Proteinase-Assay bestimmt
Assay: NS3 proteinase assay (analogous to Taliani et al., Analytical Biochemistry 240 (1996) 60-67; evaluation with GraFit 4)
Assay type: biochemical
From the text: Die IC50-Werte wurden analog zu dem in: M. Taliani et al., Analytical Biochemistry, 240 (1996) 60-67 beschriebenen NS3 Proteinase-Assay bestimmt. Die Auswertung erfolgte mit Hilfe des Programms "GraFit 4" der Firma Erithacus Software Ltd. (Staines, Middlesex, UK).

T1 sequence (P26663 1027-1657, other chains not shown): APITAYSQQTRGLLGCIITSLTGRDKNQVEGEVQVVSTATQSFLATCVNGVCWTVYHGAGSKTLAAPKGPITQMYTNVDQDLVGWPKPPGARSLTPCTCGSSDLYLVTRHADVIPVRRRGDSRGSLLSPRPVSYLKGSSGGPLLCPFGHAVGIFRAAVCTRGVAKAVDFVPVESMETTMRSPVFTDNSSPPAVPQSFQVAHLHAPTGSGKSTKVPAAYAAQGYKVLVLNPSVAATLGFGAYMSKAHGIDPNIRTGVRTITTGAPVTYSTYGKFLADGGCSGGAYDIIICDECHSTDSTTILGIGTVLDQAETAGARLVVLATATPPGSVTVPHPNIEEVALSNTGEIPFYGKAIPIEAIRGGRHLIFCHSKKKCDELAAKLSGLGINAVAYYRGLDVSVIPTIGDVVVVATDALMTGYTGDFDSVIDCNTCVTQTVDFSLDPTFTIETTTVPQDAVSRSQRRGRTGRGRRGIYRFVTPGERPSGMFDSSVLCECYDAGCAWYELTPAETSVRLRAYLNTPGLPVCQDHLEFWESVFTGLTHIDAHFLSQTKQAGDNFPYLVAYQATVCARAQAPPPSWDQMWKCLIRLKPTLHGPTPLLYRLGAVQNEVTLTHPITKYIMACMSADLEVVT

Structure (SMILES)	IC50 (read-out: IC50) [µM]	IC50 [µM]
Nc1ccc(O)c2ncccc12 [Beispiel 5, 5-Amino-8-hydroxychinolin]	51	–
CC1=CC(=O)c2ccccc2C1=O [Beispiel 1, Menadion]	45	–
O=C1C=CC(=O)c2ccccc21 [Beispiel 2, 1,4-Naphthochinon]	–	20
Nc1ccc(O)c2ccccc12 [Beispiel 3, 1-Amino-4-naphthol]	13	–
Oc1ccc(NCc2ccccc2)c2ccccc12 [Beispiel 4, 1-Benzylamino-4-naphthol]	25	–
